This note sets out measurements from patent EP0435381B1, “Antipicornaviral pyridazinamines” (priority 1989, dated 1991).

In brackets after ≈: the same amount, converted by molar mass.

For assay [1], the system named is HRV-42,-45,-14,-70,-72 and -86. The experiment in a line: Picornavirus Minimal Inhibitory Concentration Test (cytopathic effect reduction assay), second panel of rhinoviruses. The note with it: Human rhinovirus sp., HRV42; medium value of the IC50-values of all serotypes of the second panel; Ohio Hela cells, 3 to 5 days at 33°C; concentration protecting 50% of the cells from cytopathic effects; read-out: Med₂. Format: cell-based. How it is done: (§1) Example 24: Picornavirus Minimal Inhibitory Concentration Test,
(§2) The Minimal Inhibitory Concentration of the compounds of the present invention against the Human Rhinovirus strains (HRV) -2,-9,-14,-15,-29,-39,-41,-42,-45,-51, -59,-63,-70,-72,-85,-86 and -89 was determined by a standard cytopathic effect reduction assay as follows. To each of the ninety six (96) wells of a microtiter 96 well tissue culture plate there was added 60 µl of an Ohio Hela cell maintenance medium [Eagle's Basal medium supplemented with 5% Foetal Calf Serum (FCS)]. To two wells there was added 60 µl of an appropriate starting dilution of a compound of formula (I) and two-fold dilutions were made to cover a wide range of compound concentrations. Subsequently there were added 120 µl of an infectious solution of virus in Eagle's Basal Medium with 2% Hepes buffer, 2% FCS and 30 mM MgCl₂ to all wells except cell and compound controls. Said infectious virus solution has a TCID₅₀-value (Tissue Culture Infectious Dose) of about 100.
(§3) The TCID₅₀-value is the dose of viruses which initiates a cytopathic effect in 50% of the inoculated cells. 150 µl of the thus obtained virus-compound mixtures were then transferred to microtitre plates with subconfluent Ohio Hela Cells, grown in 100 µl of maintenance medium. Appropriate virus controls, cell controls and compound controls were included in each test. Plates were incubated for 3 to 5 days at 33°C in 5% CO₂ atmosphere. […] The IC₅₀-value for each virus-compound series was taken as the concentration in ng/ml that protected 50% of the cells from cytopathic effects with respect to the untreated controls. In the standard test procedure, the compounds were tested against two panels of rhinoviruses, a first panel consisting of serotypes HRV- 2,-29,-39,-85,-9,-15,-51, -59,-63,-89,-41 and the other panel consisting of HRV-42,-45,-14,-70,-72 and -86.
(§4) The IC₅₀-value for each rhinovirus serotype was determined, and the efficacy of each compound was determined in terms of the Med₁-value and Med₂-value, which is the medium value of the IC₅₀-value of all serotypes from the first and second panel respectively. The following table gives the testing results with the compounds of the invention.
(In general: Cytopathic effects are the visible damage that an infection or toxin causes in cultured cells.)

Assay [2] has as its system HRV- 2,-29,-39,-85,-9,-15,-51, -59,-63,-89,-41. The experiment in a line: Picornavirus Minimal Inhibitory Concentration Test (cytopathic effect reduction assay), first panel of rhinoviruses. Format: cell-based. To be noted: Human rhinovirus sp., HeLa, read-out: Med₁. As for the experimental part: as §1, §2, §3, §4

With `Cc1ccc(N2CCC(CCOc3ccc(-c4nc(C)no4)cc3)CC2)nn1` [compound 9], the IC50 in assay [1] is 0.018 µg/mL (≈ 0.0474 µM); in assay [2], 0.004 µg/mL (≈ 0.0105 µM).

For `CCc1noc(-c2ccc(OCCN3CCN(c4ccc(Cl)nn4)CC3)cc2)n1` [compound 38], the IC50 came to 0.072 µg/mL (≈ 0.174 µM) in assay [1] and 0.0024 µg/mL (≈ 0.00578 µM) in assay [2].

In the case of `CCc1nc(-c2ccc(OCCC3CCN(c4ccc(C)nn4)C3)cc2)no1` (stereo not shown) [compound 46], the IC50 was 0.04 µg/mL (≈ 0.105 µM) in assay [1] and 0.005 µg/mL (≈ 0.0132 µM) in assay [2].

On to `CCCCc1noc(-c2ccc(OCCC3CCN(c4ccc(C)nn4)CC3)cc2)n1` [compound 11], for which the IC50 in assay [1] stood at 0.175 µg/mL (≈ 0.415 µM); in assay [2] it was 0.006 µg/mL (≈ 0.0142 µM).

As for `Cc1ccc(N2CCC(CCOc3ccc(-c4noc(C)n4)cc3)CC2)nn1` [compound 25], the IC50 in assay [1] was 0.105 µg/mL (≈ 0.277 µM); in assay [2], 0.008 µg/mL (≈ 0.0211 µM).

On to `CCc1nnc(-c2ccc(OCCC3CCN(c4ccc(C)nn4)CC3)cc2)o1` [compound 1], for which the IC50 in assay [1] turned out to be 0.044 µg/mL (≈ 0.112 µM); in assay [2], 0.006 µg/mL (≈ 0.0152 µM).

As for `CCc1noc(-c2ccc(OCC3CCN(c4ccc(C)nn4)CC3)cc2)n1` [compound 16], the IC50 was found to be 0.083 µg/mL (≈ 0.219 µM) in assay [1] and 0.002 µg/mL (≈ 0.00527 µM) in assay [2].

Consider `CCCc1noc(-c2ccc(OCCC3CCN(c4ccc(C)nn4)CC3)cc2)n1` [compound 13], for which the IC50 in assay [1] was found to be 0.154 µg/mL (≈ 0.378 µM); in assay [2], 0.0068 µg/mL (≈ 0.0167 µM).

Take `CCc1nc(-c2ccc(OCCC3CCN(c4ccc(C)nn4)CC3)cc2)no1` [compound 6, 3-[4-[2-[4-(5-ethyl-1,2,4-oxadiazol-3-yl)phenoxy]ethyl]-1-piperidinyl]-6-methylpyridazine]: the IC50 in assay [1] came to 0.047 µg/mL (≈ 0.119 µM); in assay [2], 0.0013 µg/mL (≈ 0.0033 µM).

`CCc1noc(-c2ccc(OCCC3CCN(c4ccc(C)nn4)C3)cc2)n1` (stereo not shown) [compound 45]: the values for the IC50 in assay [1] and in assay [2] were 0.065 µg/mL (≈ 0.171 µM) and 0.006 µg/mL (≈ 0.0158 µM), respectively.

As for `CCc1nc(-c2ccc(OCCC3CCN(c4ccc(C)nn4)CC3)cc2)cs1` [compound 26], the IC50 was > 0.125 µg/mL in assay [1] and 0.005 µg/mL (≈ 0.0122 µM) in assay [2].

Regarding `CCCc1nc(-c2ccc(OCCC3CCN(c4ccc(C)nn4)CC3)cc2)co1` [compound 36], the IC50 in assay [1] is > 0.125 µg/mL; in assay [2], 0.007 µg/mL (≈ 0.0172 µM).

As for `CCc1nc(-c2ccc(OCCC3CCN(c4ccc(C)nn4)CC3)cc2)co1` [compound 21, 3-[4-[2-[4-(2-ethyl-4-oxazolyl)phenoxy]ethyl]-1-piperidinyl]-6-methylpyridazine], the IC50 was 0.02 µg/mL (≈ 0.051 µM) in assay [1] and < 0.0005 µg/mL in assay [2].

`CCc1noc(-c2ccc(OCCC3CCN(c4ccc(Cl)nn4)C3)cc2)n1` (stereo not shown) [compound 44]: the figures for the IC50 in assay [1] and in assay [2] were 0.166 µg/mL (≈ 0.415 µM) and 0.014 µg/mL (≈ 0.035 µM), respectively.

On to `CCc1noc(-c2ccc(OCCC3CCN(c4ccc(C)nn4)CC3)cc2)n1` [compound 5, 3-[4-[2-[4-(3-ethyl-1,2,4-oxadiazol-5-yl)phenoxy]ethyl]-1-piperidinyl]-6-methylpyridazine], for which the IC50 was 0.098 µg/mL (≈ 0.249 µM) in assay [1] and 0.0029 µg/mL (≈ 0.00737 µM) in assay [2].

For the compound `CCCc1nc(-c2ccc(OCCC3CCN(c4ccc(C)nn4)CC3)cc2)no1` [compound 27], the figures for the IC50 in assay [1] and in assay [2] were 0.122 µg/mL (≈ 0.299 µM) and 0.006 µg/mL (≈ 0.0147 µM), respectively.

With `CCc1csc(-c2ccc(OCCC3CCN(c4ccc(C)nn4)CC3)cc2)n1` [compound 22, 3-[4-[2-[4-(4-ethyl-2-thiazolyl)phenoxy]ethyl]-1-piperidinyl]-6-methylpyridazine], the IC50 in assay [1] was found to be 0.203 µg/mL (≈ 0.497 µM); in assay [2], 0.001 µg/mL (≈ 0.00245 µM).
